Data on three compounds can be found in patent US12448363B2, “Kinase inhibitors” (Vidya Therapeutics, Inc., priority 2020, dated 2025).

Data set [1] has as its target BTK (Homo sapiens, UniProt Q06187). The data set is described as follows: Assay to determine BTK inactivation rate in human whole blood (ELISA of unoccupied BTK). More on the design: Human whole blood is obtained from StemExpress; tissue StemExpress; host or cells: human whole blood. The following applies: 37° C., 5, 15, 30, 60 minutes, read-out: BTK hWB Kinact/Ki. Type of data set: cell-based. Here is the method:
Human Whole Blood Compound Treatment and Lysis
Human whole blood is obtained from StemExpress and kept at ambient temperature until the time of the experiment. […] This is prepared fresh each experimental day. […] Compounds are reconstituted to stocks of 10 mM and are diluted in two-fold serial dilutions to generate an 8-point curve in DMSO, with the last point being DMSO only, creating a 100× dilution series. A working 10× dilution series is created using 1.0 μL of the prepared DMSO titration, 100×, into […] 1×PBS in order to keep the DMSO constant. The human whole blood is added in the volume of 225 μL per well in a new 96w v-bottom plate, where one column of eight wells is sufficient for testing one compound. For compound treatment, 25 μL of 10× dilution series in PBS is added to the 225 μL whole blood, followed by briefly pipetting up and down twice. The plates are covered with lids and incubated at 37° C. for 5, 15, 30, 60 minutes. At each timepoint, 30 μL of treated blood is pulled from each column and added to preloaded collection plates that contain 30 μL of supplemented lysis buffer and mixed briefly. The collected and lysed samples shake on rotator for 60 minutes at room temperature. These samples are used fresh for detection via ELISA, and remaining sample is frozen at −80° C. if a repeat is necessary.
ELISA: Determining Amount of Unoccupied BTK
All streptavidin pre-coated plates (R&D Systems, #CP004) are brought to room temperature while samples are lysing. Assay Buffer 1, 1×PBS+0.05% Tween 20+1% BSA is prepared and stored at 4° C. when not in use. Using this Assay Buffer, assay buffer+1× protease/phosphatase inhibitor cocktail (PICs) is prepared in the amount needed for all samples. Assay Buffer+PICs in the volume of 90 μL/well is added to the ELISA plate. Lysed blood sample (10 μL) is added to the ELISA plate. BTK recombinant protein dilutions are prepared in assay buffer+PICS for use as a μM). The standard is loaded into the ELISA plate at 100 μL/well, in duplicate. These samples and standards remain in the plate, sealed, overnight at 4° C. The following day, the plate is washed four times with 1× Wash Buffer (1×PBS+0.05% Tween 20) using a plate washer. The plate is inverted to expel all fluid each time and blotted on clean paper towels to remove remaining liquid. Assay Buffer 2 is prepared (1×PBS+0.05% Tween 20+0.05% BSA) and kept at 4° C. when not in use. […] Diluted a-BTK antibody is added at 100 μl/well. The plate is covered with adhesive film and incubated for 90 minutes at room temperature. The plate is washed four times with 1× Wash Buffer (1×PBS+0.05% Tween 20) using a plate washer. The plate is inverted to expel all fluid each time and blotted on clean paper towels to remove remaining liquid. […] The diluted antibody is added at 100 μl/well. The plate is covered with adhesive film and incubated for one hour at room temperature. The plate is washed four times with 1× Wash Buffer using a plate washer. The plate is inverted to expel all fluid each time and blotted on clean paper towels to remove remaining liquid. […] The plate is incubated at room temperature in the dark for −5-10 minutes. The reaction is stopped by adding 50 μl/well 2N sulfuric acid (H2SO4) (R&D Systems, #DY994). The plate is read in a plate reader at the wavelengths […] and 570 nm (correction wavelength). Using Graphpad Prism, an XY table+graph is created, listing 0-60 minutes as X axis and concentration as Y axis. A One Phase Decay model fit is applied to the data. Checking Results table, the K values are obtained and new XY table+graph are created. Concentration is assigned to the X axis and K values from first analysis are entered. The Michaelis-Menten equation is applied to the data.

Data set [2] is described as follows: Plasma and total brain concentrations at 1 h post a single oral administration to female C57BL/6 mice. Format: in vivo. The note with it: mouse, 1 h post single oral 10 mg/kg, LC-MS/MS, read-out: Brain:plasma ratio. Here is the method:
Determination of Plasma and Total Brain Concentrations at 1 h Post a Single Oral Administration of Test Compound to Female C57BL/6 Mice
The appropriate amount of test article was dissolved 10% dimethylacetamide (DMA)/90% (20% hydroxypropyl-b-cyclodextrin (HP-β-CD) w/v in water to obtain a final concentration of 1 mg/mL for oral dosing. Sonication, vortex, and homogenization was used as needed. Three female C57BL/6 mice aged 7-9 weeks (20-30 grams) were dosed by oral gavage 10 mg/kg solution of the test article.
Concentrations of representative test compounds in the plasma and brain samples (using plasma and brain homogenate standard curve for all samples appropriately) were analyzed using LC-MS/MS. With respect to the brain:plasma ratio, Table 11 lists the results as follows: • “A” denotes a ratio >0.5; • “B” denotes a ratio between 0.1 and 0.5; and • “C” denotes a ratio <0.1.

A value given as a limit tells only on which side of the number the result lay.

Chain of BTK (Q06187 whole entry): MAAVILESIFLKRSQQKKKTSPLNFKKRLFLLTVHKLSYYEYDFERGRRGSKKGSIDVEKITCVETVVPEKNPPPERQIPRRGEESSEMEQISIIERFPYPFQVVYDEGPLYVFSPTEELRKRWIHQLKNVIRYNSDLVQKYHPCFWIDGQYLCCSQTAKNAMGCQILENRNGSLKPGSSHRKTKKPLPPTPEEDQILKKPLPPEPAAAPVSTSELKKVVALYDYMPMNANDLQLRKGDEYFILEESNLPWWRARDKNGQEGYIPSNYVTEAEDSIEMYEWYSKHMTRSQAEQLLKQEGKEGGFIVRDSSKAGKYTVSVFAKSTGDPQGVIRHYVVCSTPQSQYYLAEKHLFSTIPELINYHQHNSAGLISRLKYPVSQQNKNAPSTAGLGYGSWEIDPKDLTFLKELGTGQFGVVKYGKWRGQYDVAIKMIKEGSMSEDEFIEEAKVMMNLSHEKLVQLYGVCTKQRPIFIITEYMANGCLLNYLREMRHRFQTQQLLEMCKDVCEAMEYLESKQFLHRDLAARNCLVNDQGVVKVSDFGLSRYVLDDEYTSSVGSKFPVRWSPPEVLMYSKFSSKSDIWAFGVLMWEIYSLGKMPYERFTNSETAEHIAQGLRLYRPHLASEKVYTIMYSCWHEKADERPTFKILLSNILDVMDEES

Take `CC#CC(=O)N[C@H]1CCCN(c2c(F)cc(C(N)=O)c3[nH]c(C)c(C)c23)C1` [Branebrutinib, reference compound]: in data set [1], the kinact/KI is more than 16700 M⁻¹ s⁻¹. For the same compound, the Kp at 1 h in data set [2] was less than 0.1. On the same counts, the results for `CC#CC(=O)N1CCC[C@H]1c1nc(-c2ccc(C(=O)Nc3ccccn3)cc2)c2c(N)nccn12` [Acalabrutinib, reference compound] are less than 1670 M⁻¹ s⁻¹ and less than 0.1. Consider `C=CC(=O)N1CCC[C@@H](n2nc(-c3ccc(Oc4ccccc4)cc3)c3c(N)ncnc32)C1` [Ibrutinib, reference compound], for which the Kp at 1 h in data set [2] is less than 0.1.
